Assay results taken from patent publication US9034826B2, “Use of epidermal growth factor for the morphofunctional restoration of peripheral nerves in diabetic neuropathy” (Centro de Ingenieria Genetica y Biotecnologia, priority 2006, dated 2015).

Columns and labels:
Lipoprotein Lipase (LPL) [1] = assay: Lipoprotein lipase (LPL) enzymatic activity in sciatic nerve fragments, prevention study (Example 1); type: in vivo, Wistar rats
Experimental: (§1) Male Wistar, with 200-250 grams of body weight, received a subcutaneous injection of streptozotocin, at 75 mg/kg in sodium citrate buffer. Water was then replaced by a 10% sucrose solution during the next 24 h, to prevent deaths caused by hypoglycemia. Glucose levels in blood were monitored every morning during the next 72 hours after the injection. Only animals with sustained glucose values above 15 mmol/L were used. Rats were housing at 4 per cage and fed in the conventional way. A concurrent group of other 80 rats received citrate buffer without streptozotocin and was handled in a similar fashion to the diabetic group. The average value for glycemia during the 72 hours in this group was 5.87 mmol/L.
(§2) All treatments were conducted during 8 weeks, starting one week after streptozotocin injection. The composition used contained 75 μg of human recombinant EGF/ml. Several types of observations were conducted in the animals under study:
(§3) Fragments of the nerve from each animal were incubated together with 3 μg/ml heparin in Krebs-Ringer buffer at 37° C. for 50 minutes. Aliquots from these samples were then incubated in the presence of [^14C] triolein-phosphatidylcholine. ^14C labeled fatty acids were quantified by the classic methods. LPL activity was expressed in nanomoles of released fatty acids (RFA) per minute and gram of tissue.

diabetic rats [2] = assay: Conduction velocity of motor fibers, reversion study (Example 2); type: in vivo, Wistar rats; details: established diabetic neuropathy, 100 μg EGF in 1 ml i.p. 3 days a week for one month, day 120 after induction of diabetes
Experimental: (§4) Distal supra-maximal stimulation in the sciatic-tibial route using bipolar electrodes is was used to study motor conduction. Determination of the conduction velocity in the sensory routes was carried out by applying a stimulus at a proximal point in the tail and measure it 3 cm away.
(§5) The aim of this study was to evaluate the neurorestoration effect of the pharmaceutical composition. Male Wistar rats between 200-250 grams of body is weight received a subcutaneous injection of streptozotocin at 75 mg/kg in sodium citrate buffer, and were allowed to evolve until 120 days after disease induction. All rats used in this experiment had shown sustained glucose levels above 15 mmol/L. Animals were handled and fed as previously described. A concurrent control group was set, where animals received saline instead of streptozotocin. […] After this period an electrophysiological characterization of all rats were done and animals were split in two random treatment groups:
(§6) Group II. Animals received the pharmaceutical composition with 100 μg of EGF in 1 ml, 3 days a week, by intraperitoneal route.
To check the effect of the pharmaceutical composition on the restoration of sensory and motor fibers the conduction velocity of an electric impulse was measured at day 120 after induction of diabetes, after treating the animals with the pharmaceutical composition or saline. […]

[3] = test system: Redox state in fragments of sciatic nerve; assay: Redox profile in fragments of sciatic nerve, reversion study (Example 2); type: in vivo, Wistar rats; details: established diabetic neuropathy, 100 μg EGF in 1 ml i.p. 3 days a week for one month
Experimental: as §5, §6
One month after conclusion of the treatment with either EGF containing composition or saline, and […] after disease induction, animals were sacrificed by an overdose of anesthesia and perfused with saline buffer pH 7.4. A total of ten animals per experimental group were included for histomorphometric studies, and an equivalent number of rats were used for biochemical determinations. In both systems the sciatic nerves from both limbs were dissected. The procedures were similar to those described for the neuropathic damage prevention assay. Samples taken for histological and o histomorphometric studies were stained with hematoxilin/eosin and toluidine blue. At least five fragments of the same nerve were quantitatively studied using MADIP program. The fragments were included in OCT blocks, post-fixed with glutaraldehyde, and sliced horizontal and transversally. The histological indicators assessed have been described above as well as the procedures used for the processing and evaluation: • Total number of blood vessels (in epineural/perineural) in 10 microscopic fields using 10× as constant magnification in longitudinal cuts of the nerve. • Percentage of demyelinated fibers. Evaluated by averaging the values per microscopic field (×20, at least five fields). • Percentage of myelin or non-myelin fibers with lesions (dilated or distorted) per microscopic field (×20, at least five fields). • Percentage of endoneurial collagenization (moderated: 25 to 50%; severe: more than 50% of the endoneurial area in transversal slices, and at least three different sections.
Ten animals from each group were used for the biochemical determinations in the is fragments of the sciatic nerve collected. The following biochemical parameters were studied:
Redox Profile: • Total Superoxide Dismutase (tSOD) enzymatic activity total. • Catalase enzymatic activity. • Intra-axonal accumulation of total hydroperoxides (THP). • Intra-axonal accumulation of malonyldialdehyde (MDA).

Lipoprotein Lipase (LPL) [4] = assay: Lipoprotein lipase (LPL) enzymatic activity in sciatic nerve fragments, reversion study (Example 2); type: in vivo, Wistar rats; details: established diabetic neuropathy, 100 μg EGF in 1 ml i.p. 3 days a week for one month
Experimental: as §3, §5, §6
The aim of this study was to compare the LPL enzymatic activity after one month of treatment with EGF containing composition, as compared to saline treated diabetic animals. […]

diabetic rats [5] = assay: Sensory conduction velocity in the tail, prevention study (Example 1); type: in vivo, Wistar rats; details: 75 μg EGF/ml, day 60
Experimental: as §1, §2
Fifteen animals were used in each experimental group. In diabetic neuropathy conduction velocity is generally diminished.
as §4

right sciatic nerve = assay: Laser Doppler Perfusion Imaging of blood perfusion of a peripheral nerve, prevention study (Example 1); type: in vivo, Wistar rats; details: diabetic rats, 75 μg EGF/ml, two months
Experimental: as §1, §2
The right sciatic nerve of rats was used as a model. Ten animals were included for each one of the experimental groups. A similar number of non diabetic rats were used to calculate the reference values. A Laser Doppler Perfusion Imaging (LDPI) system was used. Data of perfusion in peripheral tissues to the nerve were programmed as zero values. Control animals received saline during two months before the measurement. […]

diabetic animals = assay: Findings in diabetic animals after injection or infiltration of the composition (summary); type: in vivo; details: after three systemic injections or local infiltrations at the periphery of the nerve trunks
[6] = 1 ml i.p. once weekly (Treatment group 1)
[7] = 1 ml i.p. three times a week (Treatment group 3)

Substance: EGF containing pharmaceutical composition: Composition with human recombinant EGF: 75 μg/ml in Example 1, 100 μg in 1 ml in Example 2, given intraperitoneally
- LPL activity in the sciatic nerve (Lipoprotein Lipase (LPL) [1]; Treatment group 1 (once weekly i.p., 8 weeks)): 3.75 ± 2.2 nmoles RFA/min/g
- LPL activity in the sciatic nerve (Lipoprotein Lipase (LPL) [1]; Treatment group 3 (three times a week i.p., 8 weeks)): 5.41 ± 1.83 nmoles RFA/min/g
- Velocity (conduction velocity of motor fibers) (diabetic rats [2]): 54.8 ± 1.66 m/s
- Catalase activity [3]: 86.1 ± 6.5 units per milligram of protein per minute
- MDA (malonyldialdehyde) [3]: 0.1 ± 0.03 nmol/mg of protein
- THP (total hydroperoxides) [3]: 55.8 ± 12.7 nmol/mg of protein
- tSOD (total Superoxide Dismutase activity) [3]: 1988.4 ± 101.6 units per milligram of protein per minute
- LPL activity in the sciatic nerve (Lipoprotein Lipase (LPL) [4]): 6.29 ± 1.67 nmoles AGL/min/g
- SCV (sensitive conduction velocity) (diabetic rats [5]; [6]): 38 ± 6 m/s
- SCV (sensitive conduction velocity) (diabetic rats [5]; [7]): 44 ± 9 m/s
- Laser Doppler perfusion of the sciatic nerve (right sciatic nerve; [6]): 653.4 ± 41.9 LDPI Units
- Laser Doppler perfusion of the sciatic nerve (right sciatic nerve; [7]): 988.7 ± 80.3 LDPI Units
- Axon edema (diabetic animals): Reductions in axon edema
- Axonal neurofilaments (diabetic animals): Preservation of axonal neurofilaments
- Conduction velocity of motor fibers (diabetic animals): Normalization of conduction velocity of motor fibers
- Endoneurial collagenization (diabetic animals): Diminution of endoneurial collagenization
- Integrity of the myelin sheath of the sciatic nerve (diabetic animals): Improvement in the integrity of the myelin sheath of the sciatic nerve
- Vasa nervorum (diabetic animals): Integrity of the vasa nervorum
